Results as given in patent publication US20230090742A1, “AMINOPYRIMIDINYLAMINOBENZONITRILE DERIVATIVES AS NEK2 INHIBITORS” (Sumitomo Pharma Oncology, Inc., priority 2020, published 2023).

Key:
[1] = biological target: T1, NEK2 (Homo sapiens, UniProt P51955); test: NanoBRET Target Engagement Intracellular Kinase Assay for NEK2 in transfected HEK293 cells; type: cell-based; conditions: NEK2 target engagement, read-out: NanoBRET IC50
T1 construct: expressed in transfected cells; host or cells: HEK293
T1 sequence (P51955 1-445): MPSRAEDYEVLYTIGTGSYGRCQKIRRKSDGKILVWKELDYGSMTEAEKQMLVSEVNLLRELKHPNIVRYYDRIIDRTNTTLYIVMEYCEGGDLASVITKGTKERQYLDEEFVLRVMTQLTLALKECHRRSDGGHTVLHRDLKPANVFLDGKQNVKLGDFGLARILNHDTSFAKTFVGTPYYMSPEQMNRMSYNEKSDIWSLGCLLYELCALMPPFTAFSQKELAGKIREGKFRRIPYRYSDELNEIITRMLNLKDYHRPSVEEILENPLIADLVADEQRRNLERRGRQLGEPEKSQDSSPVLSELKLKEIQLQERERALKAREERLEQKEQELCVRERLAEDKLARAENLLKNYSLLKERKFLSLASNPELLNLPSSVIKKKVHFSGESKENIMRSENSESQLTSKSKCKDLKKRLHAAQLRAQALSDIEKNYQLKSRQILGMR
Description: In this example, the compounds described herein were tested for their inhibitory activity against NEK2 using a model of in vivo activity by the NanoBRET™ Target Engagement Intracellular Kinase Assay (Reaction Biology Corp.). The assay was performed according to the manufacturer's protocol, as detailed below.
HEK293 cells were cultivated (70-80% confluence) prior to the assay. The sample was trypsinized and HEK293 cells were collected.
To prepare lipid: DNA complexes, a 10 μg/ml solution of DNA in Opti-MEM without serum was prepared that consisted of the following ratios of carrier DNA and DNA encoding NanoLuc® fusion: 9.0 μg/ml of Transfection Carrier DNA, 1.0 μg/ml of NanoLuc fusion vector DNA and 1 ml of Opti-MEM without phenol red. The solution was mixed thoroughly. 30 μl of FuGENE HD Transfection Reagent was added into each milliliter of DNA mixture to form lipid: DNA complex. The sample was mixed by inversion 10 times and then incubated at ambient temperature for 20 minutes to allow complexes to form. In a sterile, conical tube, 1 part of lipid:DNA complex was mixed with 20 parts of HEK293 cells in suspension. The resulting sample was mixed gently by inversion 5 times. The cell and lipid: DNA complex was dispensed into a sterile tissue culture dish and incubated for 22-24 hours.
Each test compound is delivered from the compound source plate to the wells of 384-well white NBS plate by Echo 550.
Step 3. Preparation of Cells with NanoBRET™ Tracer K5 Reagent:
The medium was removed from the dish with the transfected HEK293 cells via aspiration, trypsinized and cells were allowed to dissociate from the dish. Trypsin was neutralized using medium containing serum and centrifuged at 200×g for 5 minutes to pellet the cells. The cell density was adjusted to 2×10^5 cells/ml in Opti-MEM without phenol red.
The Complete 20× NanoBRET™ Tracer K5 Reagent with Tracer Dilution Buffer was prepared according to the manufacturer's instructions. One part of Complete 20× NanoBRET™ Tracer Reagent was added to 20 parts of cells in the tube. The sample was mixed gently by inversion 10 times. Next, the cell suspension was dispensed into white, 384-well NBS plates with a final tracer K5 concentration of 2 μM. The plate was incubated at 37° C., 5% CO2 for 1 hour. A separate set of samples without tracer were prepared for background correction steps.
The plate was removed from the incubator and equilibrated to room temperature for 15 minutes. The 3× Complete Substrate plus Inhibitor Solution in Assay Medium (Opti-MEMR I Reduced Serum Medium, no phenol red) was prepared just before measuring BRET. The 3× Complete Substrate plus Inhibitor Solution was added to each well of the 384-well plate and incubated for 2-3 minutes at room temperature. The donor emission wavelength (460 nm) and acceptor emission wavelength (600 nm) were measured using the Envision 2104 plate reader.
To generate raw BRET ratio values, the acceptor emission value (600 nm) was divided by the donor emission value (460 nm) for each sample. To correct for background, the BRET ratio in the absence of tracer (average of no-tracer control samples) was subtracted from the BRET ratio of each sample.
BRET Ratio=[(Acceptor sample÷Donor sample)−(Acceptor no-tracer control÷Donor no-tracer control)]

[2] = test system: EZH2 expression; test: Flow cytometry analysis for EZH2 expression in SW480 cells; type: cell-based; conditions: Homo sapiens, 24 hours treatment, 0-1000 nM, haploid and diploid cells, read-out: dose dependent decrease in EZH2 expression, IC50
Description: Reagents. MDA-MB-231 (Breast adenocarcinoma, triple negative breast cancer) and SW480 (colorectal adenocarcinoma, stem-like subtype) cells were purchased from ATCC and cultured as per manufacturer's instruction. Thymidine (Sigma, T9250) stock solution (100 mM) was prepared in PBS. 2′-Deoxycytidine (Sigma, D897) stock solution (240 mM) was prepared in distilled H2O. Nocodazole (Selleck Chemicals, S2775) stock solution (5 mg/mL) was made in dimethyl sulfoxide (DMSO). FxCycle Far Red stain (F10348) for cell cycle analysis was purchased from Thermo Fisher Scientific.
Antibodies. Polyclonal antibodies to phosphorylated-Ser55 Hec1 (PA5-85846; 1:1000) were purchased from ThermoFisher Scientific, and Phospho-Thr320 PP1α (2581S; 1:1000) and Total PP1α (2582S; 1:1000) were purchased from Cell Signaling Technologies. Monoclonal antibodies to Phospho-Ser10 Histone H3 (53348S; 1:1000), Total Histone H3 (14269; 1:5000), and EZH2-FITC (30233, 1:50) antibodies were purchased from Cell Signaling Technologies; Total Hec1 (ab109496; 1:10000) was purchased from Abcam; and Total NEK2 (sc-55601; 1:200) and GAPDH (sc-365062; 1:1000-2000) antibodies were purchased from Santa Cruz Technologies.
Flow Cytometry Analysis. […] A minimum of 100,000 events were analyzed in each sample, and the results were evaluated using FlowJo software. […]

`N#Cc1c(Nc2nc(Nc3ccc(N4CCNCC4)cc3)ncc2Cl)cccc1OCc1ccccc1F` [Compound 16, 2-((5-chloro-2-((4-(piperazin-1-yl)phenyl)amino)pyrimidin-4-yl)amino)-6-((2-fluorobenzyl)oxy)benzonitrile] gave an IC50 [1] of no more than 50 nM and an IC50 [2] of 184 nM.
